Experimental data as given in patent publication US10639301B2 (Commissariat a L'Energie Atomique et Aux Energies …, priority 2013, dated 2020).
Entries after “also recorded” stand apart in the source; their conditions may differ.

Assays:
narcoleptic Ox-/- mice [1] = assay: DREM cataplectic-like episodes in narcoleptic orexin knockout mice; format: in vivo; conditions: oral
[2] = poor metabolizers (PM) of sparteine/debrisoquine, 50 mg racemic flecainide acetate (Gross et al, 1989); cited from earlier work
[3] = test system: cardiac myocyte cell pairs; conditions: cardiac myocyte cell pairs (Daleau et al, 1998); cited from earlier work
Cx32 = target: T1, Cx32 (Homo sapiens, UniProt P08034); assay: Dye transfer (cell-parachute) gap junction assay, Rin-Cx32 cells; format: cell-based; conditions: flecainide racemate 70, 140 or 280 μM, 4 hours, flow cytometry
T1 construct: expressed in transfected cells; host or cells: rat insulinoma RIN cell line (Rin-Cx32), pcDNA3.1/V5-His-TOPO, geneticin-selected
Description: (§1) The rat insulinoma RIN cell line, deficient in GJIC (del Corsso et al, 2006), was grown in OptiMem medium, supplemented with 10% fetal calf serum. GJB6 (Cx30), GJB1 (Cx32), GJB2 (Cx26), GJA5 (Cx40) and GJA1 (Cx43) open reading frames were amplified from human cDNA. The open reading frames were cloned in pcDNA3.1/V5-His-TOPO (Invitrogen). Cells were transfected using Lipofectamine and further selected using geneticin.
(§2) Cells were seeded and loaded with two fluorochromes, calcein acetoxymethyl ester, a gap junction permeable dye, and Vybrant Dil, a membrane lipophilic dye. […] Flow cytometry was conducted on a FACScan. Inhibition was quantified as the relative number of receiver cells that gained fluorescence to the total number of receiver cells (non GJ-mediated dye transfer was then substracted to these ratio based on connexin non-expressing RIN cells, defined at background dye transfer ratio). This ratio of cellular coupling was then normalized, after each treatment, on the vehicle one.

mice [4] = assay: T-maze alternating sequential test (spatial working memory); format: in vivo; conditions: intraperitoneal
Text: The alternating sequential test is widely used to assess spatial working memory in mice (Beracochea & Jaffard, 1987). Spontaneous alternation is the innate tendency of rodents to alternate their choices to entry into the compartments of arrival of a T-maze device, over successive trials. To alternate during a given trial N, the animal must remember the choice made selectively in test N−1, so the decline in alternating will reflect the phenomenon of oblivion. The response in alternating is performance measure. Sequential alternating assesses more specifically the sensitivity to interference, a major factor in oblivion.
The experiment takes place in a T-maze (50 cm×10 cm×25 cm). All the subjects were given 7 successive trials separated by a 120-s intertrial interval. To begin a trial, the mouse was placed in the start box for 120 s before the door to the stem was opened. When the subject entered one of the goal arms, the door to that arm was closed. The chosen arm and the time that elapsed between opening the door and the arrival to the end of the chosen arm (task achievement time) were registered. Following a 30-s confinement period (fixed and invariant) in the chosen arm, the animal was removed and placed in the start box for a new trial. Between each test, the unit is cleaned with a cloth soaked in water and alcohol to avoid olfactory detection. […]

Cx43 = target: T2, Cx43 (Homo sapiens, UniProt P17302); assay: Dye transfer (cell-parachute) gap junction assay, Rin-Cx43 cells; format: cell-based; conditions: flecainide racemate 70, 140 or 280 μM, 4 hours, flow cytometry
T2 construct: expressed in transfected cells; host or cells: rat insulinoma RIN cell line (Rin-Cx43), pcDNA3.1/V5-His-TOPO, geneticin-selected
Description: as §1, §2

RIN cells = assay: Toxicity analysis, cell viability by WST-1; format: cell-based, rat; conditions: RIN cells treated 4 hours, grown 24 h; at the dose inhibiting cerebral connexins
Description: Twenty thousand RIN were seeded in 100 μl of culture medium in 96-wells plates. After 48 h culture, cells were treated for 4 hours with previously identified chemical compounds at several concentrations. Cells were rinsed in PBS and grown 24 h in fresh medium. Cell viability was measured by using WST-1 (Roche).

Cx30 = target: T3, Cx30 (Homo sapiens, UniProt O95452); assay: Dye transfer (cell-parachute) gap junction assay, Rin-Cx30 cells; format: cell-based; conditions: flecainide racemate 70, 140 or 280 μM, 4 hours, flow cytometry
T3 construct: expressed in transfected cells; host or cells: rat insulinoma RIN cell line (Rin-Cx30), pcDNA3.1/V5-His-TOPO, geneticin-selected
Description: as §1, §2

[5] = test system: Wild-type C57bl/6 male mice; assay: Wake duration by polysomnographic analysis; format: in vivo; conditions: oral
Text: Wild-type C57bl/6 male mice (n=9/groups) were implanted with EEG/EMG/EOG electrodes for polysomnographic analyses. […] Here the inventors represented the duration of wake during the first three hours (after a one-hour period post-administration). **: p<0.01 in a One-Way ANOVA analysis.

Cx40 = target: T4, Cx40 (Homo sapiens, UniProt P36382); assay: Dye transfer (cell-parachute) gap junction assay, Rin-Cx40 cells; format: cell-based; conditions: flecainide racemate 70, 140 or 280 μM, 4 hours, flow cytometry
T4 construct: expressed in transfected cells; host or cells: rat insulinoma RIN cell line (Rin-Cx40), pcDNA3.1/V5-His-TOPO, geneticin-selected
Description: as §1, §2

mice [6] = assay: Locomotor activity by video tracking; format: in vivo; conditions: oral
Description: Locomotor activity is evaluated by video tracking. Videos have been analyzed using Ethovision XT software (Noldus®).*: p<0.01 in a Two-Way ANOVA analysis

Cx26 = target: T5, Cx26 (Homo sapiens, UniProt P29033); assay: Dye transfer (cell-parachute) gap junction assay, Rin-Cx26 cells; format: cell-based; conditions: flecainide racemate 70, 140 or 280 μM, 4 hours, flow cytometry
T5 construct: expressed in transfected cells; host or cells: rat insulinoma RIN cell line (Rin-Cx26), pcDNA3.1/V5-His-TOPO, geneticin-selected
Description: as §1, §2

narcoleptic Ox-/- mice [7] = conditions: orexin KO mouse model, literature; cited from earlier work
[8] = flecainide racemate 1 mg/kg alone

T2 sequence (P17302 2-382 limits assumed): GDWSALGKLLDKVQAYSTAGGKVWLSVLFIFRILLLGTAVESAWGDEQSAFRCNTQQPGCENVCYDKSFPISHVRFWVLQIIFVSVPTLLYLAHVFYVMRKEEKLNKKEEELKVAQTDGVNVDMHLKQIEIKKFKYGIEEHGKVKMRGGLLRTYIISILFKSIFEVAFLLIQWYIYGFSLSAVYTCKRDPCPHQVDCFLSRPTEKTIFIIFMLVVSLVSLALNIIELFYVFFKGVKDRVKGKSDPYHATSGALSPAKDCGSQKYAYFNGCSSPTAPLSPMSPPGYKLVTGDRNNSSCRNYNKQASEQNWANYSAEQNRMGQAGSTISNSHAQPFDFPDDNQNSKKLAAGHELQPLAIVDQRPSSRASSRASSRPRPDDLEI
T3 sequence (O95452 whole entry): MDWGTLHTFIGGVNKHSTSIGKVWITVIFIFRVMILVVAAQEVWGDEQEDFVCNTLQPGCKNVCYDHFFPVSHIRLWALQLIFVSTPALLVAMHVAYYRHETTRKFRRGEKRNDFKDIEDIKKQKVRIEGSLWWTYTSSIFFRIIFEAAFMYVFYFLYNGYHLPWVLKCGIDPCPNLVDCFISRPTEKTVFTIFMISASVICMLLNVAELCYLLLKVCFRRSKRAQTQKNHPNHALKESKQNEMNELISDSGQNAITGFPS
T4 sequence (P36382 whole entry): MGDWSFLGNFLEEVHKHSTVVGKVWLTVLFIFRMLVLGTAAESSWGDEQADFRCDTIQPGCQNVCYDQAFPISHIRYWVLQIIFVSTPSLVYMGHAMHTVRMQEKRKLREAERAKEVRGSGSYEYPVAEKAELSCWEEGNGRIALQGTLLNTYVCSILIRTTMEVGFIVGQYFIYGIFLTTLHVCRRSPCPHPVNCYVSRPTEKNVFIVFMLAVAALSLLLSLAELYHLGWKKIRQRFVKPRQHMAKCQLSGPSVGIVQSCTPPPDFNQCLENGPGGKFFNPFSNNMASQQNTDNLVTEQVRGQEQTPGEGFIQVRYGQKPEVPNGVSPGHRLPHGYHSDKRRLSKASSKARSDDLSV
T1 sequence (P08034 whole entry): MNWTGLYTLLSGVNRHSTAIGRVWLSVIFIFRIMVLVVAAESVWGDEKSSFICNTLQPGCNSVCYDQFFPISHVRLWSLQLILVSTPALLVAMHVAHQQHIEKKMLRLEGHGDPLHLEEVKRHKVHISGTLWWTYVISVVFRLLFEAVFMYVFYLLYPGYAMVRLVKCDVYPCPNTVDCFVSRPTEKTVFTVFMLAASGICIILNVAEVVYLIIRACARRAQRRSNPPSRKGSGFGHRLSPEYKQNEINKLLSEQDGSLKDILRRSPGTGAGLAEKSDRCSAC

O=C(NC[C@H]1CCCCN1)c1cc(OCC(F)(F)F)ccc1OCC(F)(F)F [R-flecainide, (R)—N-(piperidin-2-ylmethyl)-2,5-bis(2,2,2-trifluoroethoxy)benzamide]
DREM cataplectic-like phenotype, flecainide enantiomer combined with modafinil (narcoleptic Ox-/- mice [1]; modafinil 64 mg/kg + enantiomer 1 mg/kg, R- compared with S-flecainide): more efficient
half-life [2]: 12.9 h
urinary recovery [2]: 15.6 ± 3.7 mg

O=C(NCC1CCCCN1)c1cc(OCC(F)(F)F)ccc1OCC(F)(F)F (racemic) [flecainide, N-(piperidin-2-ylmethyl)-2,5-bis(2,2,2-trifluoroethoxy) benzamide]
Influence on junctional resistance [3]: not to influence
DREM cataplectic-like phenotype, flecainide alone (narcoleptic Ox-/- mice [1]; [8]): no effect
Inhibition of gap junction dye transfer (cellular coupling) (Cx32): inhibits all the tested isoforms
Cognitive (promnesiant) effect, flecainide alone (mice [4]; [8]): no own cognitive effect
Promnesiant activity of modafinil (percentage of alternation) with flecainide added (mice [4]; modafinil 64 mg/kg + flecainide racemate 1 mg/kg): significantly potentiates
Inhibition of gap junction dye transfer (cellular coupling) (Cx43): inhibits all the tested isoforms; also recorded: higher inhibition levels
Cell viability (WST-1) (RIN cells): no cell toxicity
Inhibition of gap junction dye transfer (cellular coupling) (Cx30): inhibits all the tested isoforms; also recorded: higher inhibition levels
Wake duration, flecainide alone ([5]; flecainide 1 mg/kg alone): devoid of own effect on wake duration
Waking effect of modafinil (wake duration) with flecainide added ([5]; modafinil 32 mg/kg + flecainide racemate 1 mg/kg, first three hours after one-hour period): significantly increases
Inhibition of gap junction dye transfer (cellular coupling) (Cx40): inhibits all the tested isoforms
Locomotor effect, flecainide alone (mice [6]; [8]): devoid of any own locomotor effect
Duration of effect of modafinil on locomotor activity with flecainide added (mice [6]; modafinil 64 mg/kg + flecainide 1 mg/kg): significantly increases the duration of effect of modafinil
Inhibition of gap junction dye transfer (cellular coupling) (Cx26): inhibits all the tested isoforms; also recorded: higher inhibition levels

NC(=O)C[S+]([O-])C(c1ccccc1)c1ccccc1 (stereo not drawn) [modafinil, 2-[(diphenylmethyl)sulfinyl] acetamide]
DREM cataplectic-like phenotype, modafinil alone (narcoleptic Ox-/- mice [1]; modafinil 64 mg/kg alone): do not have any significant effect
DREM episodes under modafinil (Lin et al, 2008) (narcoleptic Ox-/- mice [7]): allows DREM episodes to persist

O=C(NC[C@@H]1CCCCN1)c1cc(OCC(F)(F)F)ccc1OCC(F)(F)F [S-flecainide, (S)—N-(piperidin-2-ylmethyl)-2,5-bis(2,2,2-trifluoroethoxy)benzamide]
half-life [2]: 9.8 h
urinary recovery [2]: 12.0 ± 3.7 mg
